Experimental data: patent US7033829B2, “Method to inhibit cell growth using oligonucleotides” (Trustees of Boston University, priority 2000, dated 2006)
Oligonucleotides are written 5' to 3', each unit as a sugar letter and its base; * is a phosphorothioate linkage, no mark a phosphodiester; rarer units and linkages stand in square brackets, end groups in braces. Plain capitals give the bases only. d = 2'-deoxy (DNA); {P} = phosphate

Legend:
[1] = test system: Human squamous carcinoma cell line SCC12F cells; assay: Cell growth / cell yield of SCC12F cells (Coulter counter); format: cell-based; details: for reduction of cell number: after 2 days, FIG. 14
Experimental: Human squamous carcinoma cell line SCC12F cells were maintained in primary keratinocyte medium (300 ml DME, 100 ml F-12 nutrient supplement, 50 ml 10× adenine, 50 ml fetal bovine serum, 5 ml penicillin/streptomycin stock, and 0.5 ml of 10 μg/ml epidermal growth factor and hydrocortisone to final concentration of 1.4 μg/ml) and dosed with either water (diluent), 100 μM pTpT (T2, Midland Certified Reagent Company, Midland, Tex.) or 100 μM pdApdA (A2). Cells were harvested before dosing (day 0), and 1, 3, 4, and 5 days after dosage, and were counted by Coulter™ counter. After harvesting, the cells were processed for total RNA isolation and were analyzed by Northern blot. Addition of a control deoxyadenine dinucleotide (pdApdA), a compound very similar to pTpT but not readily dimerized by UV irradiation, and therefore rarely excised during the course of UV-induced DNA repair, has no effect.
In a second experiment, SCC12F cells were cultured as described above. Two or three days after seeding, the preconfluent cultures were given fresh medium supplemented with either 100 μM T2 or diluent as a control. Cells were collected daily by trypsinization and counted by Coulter™ counter. The cell yield in cultures treated with T2 was reduced by […] compared to that of paired control cultures after five days (FIG. 2). This corresponds to 2.3 population doublings in this time for control cells, compared with 1 doubling for T2-treated cells.
pTpT was previously found to inhibit cell cycle progression, at least in part through activation of p53 and subsequent upregulation of the cyclin dependent kinase inhibitor p21. Cultures of the human keratinocyte line SCC12F were treated with pTpT, SEQ ID NO: 1, SEQ ID NO: 6 or diluent alone as a negative control, collected and counted 48 hours later and processed for northern blot analysis of p21 mRNA expression. […] Thus, the sequences of the present invention activate p53 and inhibit cell proliferation similar to the effect of pTpT.
Exposure of keratinocytes to UVB irradiation affects the expression of genes involved in cell cycle arrest, DNA repair and cytokine production. Single-stranded oligonucleotides sharing sequence homology with the telomere 3′ overhang, when introduced into cells, mimic these UV effects. To identify other genes that may be similarly modulated, cells of keratinocyte origin (SCC12F; a human epidermal squamous cell carcinoma line provided by Dr. James Rheinwald of Harvard University) were exposed to solar simulated irradiation (SSR) (20 mJ/cm^2, measured at 285±5 nm), to an 11-base oligonucleotide (pGTTAGGGTTAG; SEQ ID NO:5) homologous to the telomere overhang (T-oligo), or to a complementary sequence as control [pCTAACCCTAAC; (SEQ ID NO:9) control oligonucleotide]. […] These are mitochondrial-transcribed genes whose encoded proteins participate in cellular respiration.

telomere length = assay: Mean telomere length in fibroblasts; format: cell-based, human; details: for MTL values: 40 μM, 5 days (diluent 10.59)
Experimental: Cells were plated at a density of 180,000 cells/ml in RPMI 1640 medium supplemented with 3% FBS. Cells were treated with 40 μM of either of the oligonucleotides for 72 hours. Cells were then collected, washed and fixed for 30 minutes in 4% paraformaldehyde and then permeabilized with 0.1% Triton X-100 for 2 minutes. The TUNEL assay was carried out with components and instructions of the In Situ Cell Death Detection Kit using fluorescein-labeled dUTP from Boehringer Mannheim. TUNEL-positive cells were detected by FACS analysis and confocal microscopy. Cellular Uptake of Oligonucleotides For confocal analysis, Jurkat cells were plated on Permanox chamber slides (Lab-Tek, Naperville, Ill.) and treated for 4 hours with fluorescein phosphoramidite (FAM)-labeled oligonucleotides (Research Genetics, Inc., Huntsville, Ala.). Adherent cells were fixed in 4% paraformaldehyde in PBS, stained with propidium iodide (PI) to identify nuclei, mounted with Slowfade reagent (Molecular Probes, Eugene, Oreg.), covered with a coverslip and stored at 4° C. in the dark. Uptake of the oligonucleotides was assessed in 5–10 μm sections with a Carl Zeiss LSM 510 confocal laser microscope. Computer images assign green to the FAM-oligonucleotides, red to PI, and yellow to co-localization of the signals. FACS analysis was performed on Jurkat cells identically treated with the FAM-oligonucleotides for 4 hours, then fixed in 0.5 ml of 4% paraformaldehyde overnight at 4° C. Fluorescence was measured on the FL-1 channel. Western Blot Analysis and Antibodies Western blot analysis was performed as previously described [Eller, M. S., et al., (1996), Proc Natl Acad Sci USA 93, 1087–1092]. Antibody Ab-6 (DO-1 clone, Oncogene Research Products, Cambridge, Mass.) detected p53; antibody KH95 (Santa Cruz Biotechnology, Inc., Santa Cruz, Calif.) detected E2F1; antibody Ab-4 (Oncogene Research products) detected p73. Phospho-p53 (serine 15) was detected using the #9284 polyclonal antibody and phospho-p95/Nbs1 (serine 343) was detected by a phospho-p95/Nbs1-specific polyclonal antibody, both antibodies from Cell Signaling Technology (Beverly, Mass.). p95/Nbs1 antibody (#NB-100-143, Novus Biologicals, Littleton, Colo.) and an actin antibody (I-19, Santa Cruz Biotechnology, Santa Cruz, Calif.) were also used. […] After the indicated times, total protein was collected and analyzed by 8% PAGE and western blot using a polyclonal antibody to p95/Nbs1 (#NB-100-143, Novus Biologicals, Littleton, Colo.). […] Telomere length was determined essentially as described by van Steensel and de Lange (van Steensel, B. and T. de Lange. 1997, Nature 385: 740–743) using the Telo TAGGG Telomere Length Assay from Roche Molecular Biochemicals (Indianapolis, Ind.) and the protocol supplied by the manufacturer. […]

Row | Substance | reduction of cell number [1] | MTL values (telomere length) [kilobases] | further results
1 | pGAGTATGAG (DNA, 5' {P}, backbone not given here) [SEQ ID NO: 1] | approximately 50% | – | –
2 | pGTTAGGGTTAG (DNA {P}-dGdTdTdAdGdGdGdTdTdAdG) [SEQ ID NO: 5] | – | 12.25 | cellular proliferation ([1]; Example 27): substantially inhibited cellular proliferation; increase in MTL (telomere length; 5-day experiment): approximately 20%
3 | thymidine dinucleotide [pTpT] | 40% | – | cell yield reduced compared to paired control cultures ([1]; 100 μM, after five days): 75%; cell growth rate ([1]; 100 μM, days 1, 3, 4, 5 after dosage): marked decreases in cell growth rate; population doublings ([1]; 100 μM, five days (control 2.3)): 1
4 | pCTAACCCTAAC (DNA, 5' {P}, backbone not given here) [SEQ ID NO: 9, reference compound] | – | 10.45 | –
5 | pGATCGATCGAT (DNA {P}-dGdAdTdCdGdAdTdCdGdAdT) [SEQ ID NO: 10, reference compound] | – | 10.22 | –
